# Measurements: EPA's ToxValDB 9.5
# Several values for one entry are separate records, joined by “and”; a condition that tells them apart may be missing. Identical values can stand only once.
# Assays:
# Ovis sp. = conditions: for LD50: acute, mortality
# Oryctolagus sp. = conditions: for NOAEL: reproduction developmental; for LEL: no effects
# Pontoscolex corethrurus = conditions: for LC50: acute
# Daphnia magna = conditions: for NOEC: chronic/long-term, duration: 21 days, reproduction
# Gallus gallus = conditions: for NOAEL: body weight
# Bovidae = conditions: oral; for LEL: no effects
# Sus scrofa = conditions: Not specified
# Bibionidae = conditions: chronic/long-term
# Numida meleagris = conditions: subchronic; duration: 85 days; no effects
# Plant = conditions: not reported; other
# Capra sp. = conditions: subchronic; no effects
# Anabaena flosaquae = conditions: acute; duration: 72 hours; biomass
# Canidae = conditions: chronic, oral
# Pelteobagrus fulvidraco = conditions: subchronic; duration: 10 weeks; oral; feed; histopathology: nonneoplastic
# Carassius carassius = conditions: not reported; oral; feed; histopathology: nonneoplastic
# Equus caballus = conditions: not reported; neurology
# Oncorhynchus mykiss = conditions: acute; duration: 3 days; oral; capsule; no effects
# Felidae = conditions: short-term; duration: 10 days; oral; diet; Cat; no effects
# Neovison vison = conditions: reproduction developmental; oral; diet; F; reproduction
# Meleagris sp. = conditions: short-term; duration: 3 weeks; oral; feed; F; body weight
# Anatidae = conditions: short-term; duration: 17 days; oral; feed; M; histopathology: nonneoplastic
# Phasianus sp. = conditions: acute; oral; unspecified; mortality
# Lepomis macrochirus = conditions: acute; duration: 96 hours; mortality
# Pimephales promelas = conditions: chronic/long-term
# Danio rerio = conditions: acute; duration: 96 hours; mortality
# Cyprinodon variegatus = conditions: chronic/long-term; duration: 90 days; development
# Neomysis kadiakensis = conditions: chronic/long-term; duration: 28 days; other
# Apis mellifera = conditions: acute, mortality
# Folsomia candida = conditions: chronic/long-term; duration: 28 days; reproduction
# Hypoaspis aculeifer = conditions: chronic/long-term; duration: 14 days; mortality
# [1] = short-term, oral, feed, mortality
# [2] = subchronic, duration: 57 days, diet
structure (smiles),measurement,setting,value
"Clc1ccc(C(c2ccccc2Cl)C(Cl)Cl)cc1 (centres undefined) [1-(2-Chlorophenyl)-1-(4-chlorophenyl)-2,2-dichloroethane]",LEL,"Ovis sp.; subchronic, oral, diet, F, no effects",0.3 mg/kg-day
"c1nc[nH]n1 [1H-1,2,4-Triazole]",NOAEL,Oryctolagus sp.; body weight,30 mg/kg-day
same,LC50,Anas platyrhynchos; [1],> 1350 mg/kg-day
same,LC50,"Colinus virginianus; acute, oral, diet, mortality",> 1410 mg/kg-day
same,NOAEL,"Rattus norvegicus; chronic, duration: 12 months, body weight",6.9 mg/kg-day
same,NOAEL,Rattus norvegicus; reproduction developmental,17 mg/kg-day (2×) and 30 mg/kg-day (2×)
"C/C=C(\C)C(=O)O [2-Butenoic acid, 2-methyl-, (2E)-]",LC50,Pontoscolex corethrurus; mortality,2010 mg/kg
"CC1=C(/C=C/C(C)=C/C=C/C(C)=C/C=C/C=C(C)/C=C/C=C(C)/C=C/C2=C(C)C(=O)[C@@H](O)CC2(C)C)C(C)(C)C[C@H](O)C1=O [3,3'-Dihydroxy-beta-carotene-4,4'-dione]",NOAEL,"Mus musculus; chronic, duration: 80 weeks, oral, body weight",14 mg/kg-day
CC=Cc1ccc(OC)c(OC)c1 [4-Prop-1-enylveratrole],NOAEL,"Rattus norvegicus; short-term, duration: 28 days, oral, organ weight",100 mg/kg-day
same,NOAEL,repeat dose other,6 mg/kg-day
CC/C=C\CCOC(C)OCC (stereo not drawn) [Acetaldehyde ethyl cis-3-hexenyl acetal],LC50,Pontoscolex corethrurus; mortality,238 mg/kg
same,LC50,"Daphnia magna; acute, mortality",12 µg/mL
CC(C)(c1ccc(O)cc1)c1ccc(O)cc1 [Bisphenol A],NOAEL,"Mus musculus; reproduction developmental, M/F, CD1, organ weight",5 mg/kg-day
O=c1c(CO)c/c(=N/Nc2ccc(S(=O)(=O)[O-])c3ccccc23)c(=O)/c1=N/Nc1ccc(S(=O)(=O)[O-])c2ccccc12.[Na+].[Na+] [Chocolate Brown HT],NOAEL,"Mus musculus; chronic, duration: 80 weeks, oral, diet, M/F, histopathology: nonneoplastic",143 mg/kg-day
"CSCCC(O)C(=O)[O-].CSCCC(O)C(=O)[O-].[Cu+2] (centres undefined) [Copper, bis[2-(hydroxy-?O)-4-(methylthio)butanoato-?O]-]",LEL,"Gallus gallus; subchronic, duration: 8 weeks, oral, diet, clinical chemistry",75 mg/kg-day
same,LEL,"Gallus gallus; subchronic, duration: 35 days, oral, diet, M, other",500 mg/kg-day
same,LEL,Bovidae; [2],45 mg/kg-day
same,LEL,"Sus scrofa; subchronic, duration: 42 days, oral, diet, body weight",340 mg/kg-day
N#CC(c1ccc(Cl)cc1)c1c(Cl)cc(-n2ncc(=O)[nH]c2=O)cc1Cl (centres undefined) [Diclazuril],NOEC,"Bibionidae; duration: 28 days, seedling emergence",13.3 mg/kg
same,LEL,Numida meleagris,≤ 25 mg/kg
same,NOEC,Plant,50.3 mg/kg
same,LEL,"Oryctolagus sp.; repeat dose other, F",6 mg/kg-day
same,LEL,"Oryctolagus sp.; subchronic, duration: 35 days, oral, diet, M/F, New Zealand",6 mg/kg-day
same,LEL,"Gallus gallus; subchronic, duration: 37 days, no effects",25 mg/kg-day
same,NOEC,"Pontoscolex corethrurus; chronic/long-term, reproduction",50 mg/kg
same,LEL,Capra sp.,≤ 80 mg/kg
same,NOAEL,"Mus musculus; chronic, duration: 2 years, M, histopathology: nonneoplastic",2.9 mg/kg-day
same,NOEC,"repeat dose other, other",> 1 mg/kg-day
same,LEL,"Bovidae; acute, duration: 3 days",≤ 5 mg/kg-day
same,NOEC,Anabaena flosaquae,> 10.3 µg/L
same,LEL,"Sus scrofa; acute, duration: 3 days, oral, no effects",10 mg/kg-day
C/C=C/C(=O)Oc1ccccc1[N+](=O)[O-].CCCCCCCC.O=NO [Dinocap],NOAEL,Oryctolagus sp.; oral,3 mg/kg-day
same,LD50,Anas platyrhynchos; [1],367 mg/kg-day
same,LD50,"Colinus virginianus; acute, oral, mortality",> 2150 mg/kg-day
same,NOEL,"Colinus virginianus; reproduction developmental, reproduction",27.5 mg/kg-day
same,NOAEL,"Canidae; duration: 2 years, Dog Other, ophthalmoscopic examination",0.4 mg/kg-day
"CC(=O)Sc1cc(C)oc1C [Ethanethioic acid, S-(2,5-dimethyl-3-furanyl) ester]",NOAEL,"Rattus norvegicus; subchronic, duration: 90 days",0.73 mg/kg-day
same,NOAEL,"subchronic, duration: 90 days",0.73 mg/kg-day
CCCC[C@@H](C)[C@@H](OC(=O)C[C@@H](CC(=O)O)C(=O)O)[C@H](C[C@@H](C)C[C@H](O)CCCC[C@@H](O)C[C@H](O)[C@H](C)N)OC(=O)C[C@@H](CC(=O)O)C(=O)O [Fumonisin B1],LOAEL,"Gallus gallus; short-term, duration: 21 days, oral, diet, clinical chemistry",2 mg/kg-day
same,NOAEL,Rattus norvegicus; subchronic,0.2 mg/kg-day
same,NOAEL,Pelteobagrus fulvidraco,20 mg/kg
same,LOAEL,"Bovidae; chronic, duration: 253 days, diet, M, histopathology: nonneoplastic",2.4 mg/kg-day
same,LOAEL,"Sus scrofa; subchronic, clinical chemistry",0.2 mg/kg-day
same,LOAEL,Carassius carassius,10 mg/kg
same,LOAEL,Equus caballus,0.2 mg/kg-day
OO [Hydrogen peroxide],NOAEL,"Mus musculus; subchronic, duration: 90 days, oral, drinking water, M/F, food consumption",100 mg/kg-day
C=CCOC(Cn1ccnc1)c1ccc(Cl)cc1Cl (centres undefined) [Imazalil],NOAEL,Oryctolagus sp.; food consumption,10 mg/kg-day
same,NOAEL,Oryctolagus sp.; histopathology: nonneoplastic,5 mg/kg-day
"CSCCC(O)C(=O)[O-].CSCCC(O)C(=O)[O-].[Mn+2] (centres undefined) [Manganese, bis[2-(hydroxy-?O)-4-(methylthio)butanoato-?O]-]",LEL,"Gallus gallus; subchronic, duration: 8 weeks, oral, diet, no effects",450 mg/kg-day
same,LEL,Bovidae; [2],450 mg/kg-day
same,LEL,"Sus scrofa; subchronic, duration: 42 days, oral, diet, clinical chemistry",150 mg/kg-day
Nc1nc(N)nc(N)n1 [Melamine],LEL,Oncorhynchus mykiss,456 mg/kg-day
same,LEL,Felidae,181 mg/kg-day
same,NOAEL,"Rattus norvegicus; subchronic, duration: 13 weeks, oral",63 mg/kg-day
same,LEL,"Sus scrofa; acute, duration: 3 days, oral, diet, no effects",400 mg/kg-day
O=c1cc(O)c1=O [Moniliformin],NOAEL,Neovison vison,0.92 mg/kg-day
same,NOAEL,Meleagris sp.,1.6 mg/kg-day
same,NOAEL,"Gallus gallus; chronic, duration: 14 months, oral, diet",3.8 mg/kg-day
same,NOAEL,"Gallus gallus; subchronic, duration: 7 weeks, oral, diet",1.4 mg/kg-day
same,NOAEL,"Rattus norvegicus; short-term, duration: 28 days, oral, gavage, M, Sprague-Dawley, clinical signs",6 mg/kg-day
same,NOAEL,Anatidae,2.3 mg/kg-day
C[C@@H]1C/C=C/C=C/C=C/C=C/[C@H](O[C@@H]2O[C@H](C)[C@@H](O)[C@H](N)[C@@H]2O)C[C@@H]2O[C@](O)(C[C@@H](O)C[C@H]3O[C@@H]3/C=C/C(=O)O1)C[C@H](O)[C@H]2C(=O)O [Natamycin],NOAEL,"Rattus norvegicus; chronic, duration: 2 years, oral, diet, growth",22.4 mg/kg-day
same,NOAEL,"Canidae; duration: 2 years, diet, M/F, Beagle, body weight",6.25 mg/kg-day
CNC(=O)CSP(=O)(OC)OC [Omethoate],LD50,Phasianus sp.,29 mg/kg
same,LD50,"Colinus virginianus; acute, oral, mortality",9.9 mg/kg
same,LC50,"Rattus norvegicus; acute, duration: 4 hours, inhalation, mortality",0.287 µg/mL
same,NOAEL,"Rattus norvegicus; acute, oral, clinical signs",0.2 mg/kg-day
same,LOAEL,"Rattus norvegicus; chronic, duration: 2 years, clinical chemistry",0.04 mg/kg-day
same,NOAEL,"Rattus norvegicus; reproduction developmental, clinical chemistry",0.03 mg/kg-day
same,NOAEL,"Canidae; duration: 12 months, gavage, Dog Other, clinical chemistry",0.025 mg/kg-day
CCOc1cc(Oc2ccc(C(F)(F)F)cc2Cl)ccc1[N+](=O)[O-] [Oxyfluorfen],NOEC,"Landoltia sp.; acute, duration: 14 days, frond number",0.00195 mg/L
same,LC50,Lepomis macrochirus,0.21 µg/mL
same,NOEC,"Bibionidae; duration: 28 days, development",80 µg/L
same,NOEC,Daphnia magna,13 µg/L
same,NOEC,"Pimephales promelas; duration: 34 days, reproduction",38 µg/L
C=C(C)[C@@H]1NC(=O)[C@@H](NC)[C@@H](O)c2cc(Cl)c(O)c(c2)O[C@](C)(CC)[C@@H](C(=O)N2CC=C[C@H]2C(=O)N/C(C(=O)N/C(=C/C(=O)O)C(=O)O)=C(\C)CC)NC1=O [Phomopsin],LD50,"Ovis sp.; injection, subcutaneous",≥ 0.017 mg/kg
same,LD50,Ovis sp.; oral,1.34 mg/kg
same,LOAEL,"Ovis sp.; subchronic, clinical chemistry",12.5 mg/kg-day
same,LD50,"Sus scrofa; acute, mortality",0.848 mg/kg
P [Phosphine],LC50,Danio rerio,0.048 µg/mL
same,NOAEL,"Rattus norvegicus; chronic, duration: 2 years, inhalation",1.1 mg/kg-day
same,NOAEL,"Rattus norvegicus; reproduction developmental, inhalation, mortality",1.9 mg/kg-day
same,NOAEL,"Rattus norvegicus; subchronic, duration: 90 days, inhalation, mortality",1.1 mg/kg-day
Cc1nc(N(C)C)nc(OC(=O)N(C)C)c1C [Pirimicarb],LD50,"Colinus virginianus; acute, duration: 2 hours, oral, gavage, M/F, mortality",20 mg/kg
same,LD50,"Colinus virginianus; acute, oral, diet, mortality",370 mg/kg
[I-].[K+] [Potassium iodide],LEL,"Gallus gallus; repeat dose other, no effects",5 mg/kg-day
same,LEL,"Sus scrofa; repeat dose other, no effects",8 mg/kg-day
CC(C)(C)c1ccc(CSc2cnn(C(C)(C)C)c(=O)c2Cl)cc1 [Pyridaben],NOEC,Anas platyrhynchos; chronic/long-term,10 mg/kg-day
same,NOEC,Anas platyrhynchos; [1],659 mg/kg-day
same,LD50,"Colinus virginianus; acute, oral, mortality",> 2250 mg/kg-day
same,NOEC,"Rattus norvegicus; chronic, M, body weight",3.2 mg/kg-day
Fc1ccc(Oc2ccnc3cc(Cl)cc(Cl)c23)cc1 [Quinoxyfen],NOEC,"Landoltia sp.; chronic/long-term, duration: 14 days",0.149 mg/L
same,NOEC,Bibionidae; duration: 27 days,128 µg/L
same,NOEC,Cyprinodon variegatus,0.00409 mg/L
same,NOEC,Neomysis kadiakensis,0.00152 mg/L
Oc1cccc(O)c1 [Resorcinol],NOAEL,"Mus musculus; chronic, duration: 104 weeks, clinical signs",36 mg/kg-day
same,NOAEL,"Rattus norvegicus; chronic, duration: 103 weeks, oral, gavage, Fischer 344, neurology",36 mg/kg-day
[Al+3].[Na+].[O-][Si]([O-])([O-])[O-] [Sodium aluminium silicate],LC50,Danio rerio,> 100 µg/mL
same,NOEC,Daphnia magna,10000 µg/L
same,NOEC,"Pimephales promelas; duration: 30 days, growth",86700 µg/L
O=C1[N-]S(=O)(=O)c2ccccc21.[Na+] [Sodium saccharin],NOEC,"Pontoscolex corethrurus; reproductive, duration: 56 days, mortality",100 mg/kg
CN1COCN(Cc2cnc(Cl)s2)/C1=N/[N+](=O)[O-] [Thiamethoxam],LD50,Apis mellifera; dermal,0.024 µg/piece (2×) and 0.0121 µg/piece
same,LD50,"Apis mellifera; duration: 48 hours, oral, unspecified",0.00631 µg/piece
same,LD50,"Apis mellifera; duration: 72 hours, dermal",5.55 g/ha
same,LD50,"Apis mellifera; oral, unspecified",0.005 µg/piece (3×) and 0.00936 µg/piece
C[C@H]1CCCC(=O)CCC/C=C/c2cc(O)cc(O)c2C(=O)O1 [Zearalenone],NOEL,"Sus scrofa; reproduction developmental, F, morphology",0.01 mg/kg-day
C=C(C)[C@H]1CC=C(C)C(=O)C1 [d-Carvone],LC50,Danio rerio,56 µg/mL
same,NOEC,"Landoltia sp.; acute, duration: 192 hours, frond number",4.6 mg/L
same,LD50,"Rattus norvegicus; acute, oral, mortality",> 2000 mg/kg-day
same,NOAEL,"Rattus norvegicus; reproduction developmental, organ weight",30 mg/kg-day
same,NOEC,Folsomia candida,25 mg/kg
same,NOEC,Hypoaspis aculeifer,≥ 200 mg/kg
"Clc1ccc(C(c2ccc(Cl)cc2)C(Cl)Cl)cc1 [p,p'-DDD]",NOAEL,"Anas platyrhynchos; not reported, other",0.06 mg/kg-day
"ClC(Cl)=C(c1ccc(Cl)cc1)c1ccc(Cl)cc1 [p,p'-DDE]",LOAEL,"Anas platyrhynchos; reproductive, development",0.6 mg/kg-day
